Results published in patent US20250360108A1, “CATALYTIC INHIBITOR OF PROTEIN PHOSPHATASE 5 ACTIVATES THE EXTRINSIC APOPTOTIC PATHWAY BY DISRUPTING COMPLEX II” (The Research Foundation for the State University of New York, priority 2022, published 2025).
Values belong to the molecule of their own block, whether it stands above or below them. Residues, ends and D or L forms follow the SMILES beside them. *: point of attachment. Cbz = O=C(OCc1ccccc1)*; CH2F = FC*

Assays:
[1] = test system: PP5; assay: PP5 inhibition in cells by immunoblotting of PP5 substrates phospho-S211-GR and phospho-S13-Cdc37; format: cell-based, human; details: 786-O cells, indicated amounts, 24 hrs
Description: Protein Extraction, Immunoprecipitation and Immunoblotting: Protein extraction from mammalian cells was carried out using methods previously described. Cell lysates were quantified using 1× Bradford reagent (Biorad). For immunoprecipitation, cell lysates were incubated with anti-FLAG antibody conjugated beads (Sigma) or anti-HA conjugated beads (ThermoFisher Scientific) at 4° C. for 2 hrs. Endogenous IPs were achieved by incubating lysate with anti-PP5 antibody (Cell Signaling), anti-FADD antibody (Cell Signaling), or anti-RIPK1 antibody (Cell Signaling) overnight followed by protein G agarose (Invitrogen) at 4° C. for 2 hrs. Immunopellets were washed 4 times with fresh lysis buffer (20 mM Tris-HCl (pH 7.4), 100 mM NaCl, 1 mM MgCl2, 0.1% NP40, protease inhibitor cocktail (Roche), and PhosSTOP (Roche)) and eluted in 5× Laemmli buffer. Precipitated proteins were separated by SDS-PAGE and transferred to nitrocellulose membranes. Co-immunoprecipitated proteins or proteins from cell lysate were detected with antibodies recognizing FLAG, 6×-His (ThermoFisher Scientific), GAPDH (ENZO Life Sciences), Cdc37 (StressMarq), GR, phospho-GR (S211), PP5, caspase-3, cleaved caspase-3, caspase-8, cleaved caspase-8, cleaved caspase-7, cleaved-PARP, phospho-RIPK1 (S166), phospho-FADD (S194), PP2A-C, VHL (Cell Signaling), phospho-RIPK1 (S161) (Invitrogen), PP5 and phospho-Cdc37 (S13) (Abcam). […]

[2] = biological target: T1, recombinant PP5-His6 (Homo sapiens, UniProt P53041); assay: PP5 Phosphatase Activity and Inhibition Assay (PiPer phosphate release, phospho-S211-GR peptide); format: biochemical; details: phospho-S211-GR peptide substrate
T1 construct: GST (N, cleaved yes); made in house
T1 sequence (P53041 1-499): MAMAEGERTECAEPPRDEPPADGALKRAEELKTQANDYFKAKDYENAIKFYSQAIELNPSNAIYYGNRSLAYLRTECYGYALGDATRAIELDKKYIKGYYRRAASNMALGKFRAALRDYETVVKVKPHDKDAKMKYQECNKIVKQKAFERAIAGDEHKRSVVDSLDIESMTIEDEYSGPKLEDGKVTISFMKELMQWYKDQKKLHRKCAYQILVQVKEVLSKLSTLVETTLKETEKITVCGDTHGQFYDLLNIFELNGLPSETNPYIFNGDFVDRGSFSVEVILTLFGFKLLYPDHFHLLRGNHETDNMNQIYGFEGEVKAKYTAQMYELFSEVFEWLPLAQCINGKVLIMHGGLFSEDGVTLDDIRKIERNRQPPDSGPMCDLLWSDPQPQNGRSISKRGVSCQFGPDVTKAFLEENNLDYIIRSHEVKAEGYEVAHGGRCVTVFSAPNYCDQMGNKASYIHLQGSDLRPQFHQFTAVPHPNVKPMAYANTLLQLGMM
Description: PP5 inhibitors specifically bind to the phosphatase-catalytic domain: We next sought to measure the inhibition of PP5 activity in vitro with P5 and P13.
Bacterial Expression and Protein Purification of PP5: Human PPP5c was cloned into pGEX6P1 with an N-terminal GST tag and C-terminal His6 tag. Transformed cells were grown at 37° C. in LB with 100 mg/L ampicillin until OD600=0.6 and induced with 1 mM IPTG. Cells were harvested by centrifugation and lysed by sonication in lysis buffer (50 mM Hepes (pH 8.0), 150 mM NaCl, 0.5 mM TCEP and EDTA-free protease inhibitor cocktail tablet (Roche)). Lysate was incubated with talon resin (Takara Bio) for 1 hr at 4° C. The resin was washed three times with lysis buffer and PP5 was eluted with lysis buffer containing 250 mM imidazole. Precision protease was added to the elution overnight to cleave the GST tag and the sample was then mixed with Glutathione Sepharose resin (Cytiva) to remove the free GST and un-cleaved protein. The sample was applied to a Superdex S75 16/60 size exclusion column (GE Healthcare) and eluted in 100 mM NaCl, 20 mM Hepes pH 8, 02 mM TCEP.
PP5 Phosphatase Activity and Inhibition Assay: The phosphatase activity of the recombinant PP5-His6 was measured using the PiPer™ Phosphate Assay Kit (Thermo Fisher Scientific) as described in the manufacturer's protocol. Standard curve with linear fit line was created from 0-1 nM Pifinal concentration reactions. 1 nM of PP5-His6 was added to each reaction with indicated amounts of custom synthesized substrate phospho-S211-glucocorticoid receptor (PhosS211-GR) peptide (see Key Resources Table) as specific substrate (Thermo Fisher Scientific). Reactions were run in triplicate and incubated at 37° C. for over 10 min. […] Enzyme kinetics were calculated and plotted using Lineweaver Burk plot and web-based tool (https://www.aatbio.com/tools/ic50-calculator) for calculating IC50 and (https://bioinfo-abcc.ncifcrf.gov/IC50_Ki_Converter/index.php) for converting IC50 to Ki values for inhibitors of enzyme activity and ligand binding.

[3] = test system: 786-O cells; assay: Cell viability / proliferation MTT assay; format: cell-based, human; details: varying doses, 48 hrs
Description: Cell Viability Assay: Renal cancer cell lines 786-O, Caki-2, Caki-1, and A498 as well as the normal renal cell line HK-2 were plated at 10,000 cells per well in 96-well plates. […] After 24 or 48 hrs, cell viability assay was performed using the Quick Cell Proliferation Kit Plus (BioVision) according to the manufacturer's protocol. The absorbance at 450 nm was measured on a Tecan Infinite M200 Pro and proliferation rate was calculated.

[4] = test system: 786-O cells; assay: Induction of apoptosis by immunoblotting of apoptotic markers; format: cell-based, human
Description: Method Details Cell Transfection and Treatment: Cultured cells were split and then transfected the following day when about 40% confluent with each construct using Mirus TranslT-2020 (MirusBio) according to manufacturer's protocol. Cells were incubated at 37° C. and then extracted or collected for analysis after 24 hrs (HEK293) or 72 hrs (ccRCC cell lines). Short interfering RNA (siRNA) scramble control and PPP5C (PP5) targeting duplexes were purchased from OriGene (SKU: SR321403A, SR321403B, and SR321403C). Indicated cells were transiently transfected with the siRNA using Mirus TranslT-2020. For PP5 knock-down, either 30 nM of control siRNA or 10 nM of each PP5 siRNA duplex (A, B and C) were mixed prior to transfection. Cells were incubated at 37° C. for 72 hrs, then harvested for protein extraction. […] Cells were then harvested for protein extraction.
(§1) Protein Extraction, Immunoprecipitation and Immunoblotting: Protein extraction from mammalian cells was carried out using methods previously described. Cell lysates were quantified using 1× Bradford reagent (Biorad). For immunoprecipitation, cell lysates were incubated with anti-FLAG antibody conjugated beads (Sigma) or anti-HA conjugated beads (ThermoFisher Scientific) at 4° C. for 2 hrs. Endogenous IPs were achieved by incubating lysate with anti-PP5 antibody (Cell Signaling), anti-FADD antibody (Cell Signaling), or anti-RIPK1 antibody (Cell Signaling) overnight followed by protein G agarose (Invitrogen) at 4° C. for 2 hrs. Immunopellets were washed 4 times with fresh lysis buffer (20 mM Tris-HCl (pH 7.4), 100 mM NaCl, 1 mM MgCl2, 0.1% NP40, protease inhibitor cocktail (Roche), and PhosSTOP (Roche)) and eluted in 5× Laemmli buffer. Precipitated proteins were separated by SDS-PAGE and transferred to nitrocellulose membranes. Co-immunoprecipitated proteins or proteins from cell lysate were detected with antibodies recognizing FLAG, 6×-His (ThermoFisher Scientific), GAPDH (ENZO Life Sciences), Cdc37 (StressMarq), GR, phospho-GR (S211), PP5, caspase-3, cleaved caspase-3, caspase-8, cleaved caspase-8, cleaved caspase-7, cleaved-PARP, phospho-RIPK1 (S166), phospho-FADD (S194), PP2A-C, VHL (Cell Signaling), phospho-RIPK1 (S161) (Invitrogen), PP5 and phospho-Cdc37 (S13) (Abcam). Secondary antibodies raised against mouse and rabbit (Cell Signaling) were used (See Key Resources Table).

[5] = test system: Hsp90; assay: Time course with Hsp90 inhibitor SNX-2112, protein levels by immunoblot; format: cell-based, human; details: HEK293 cells, 2 μM
Description: Since a vast majority of PP5 substrates are also clients of the molecular chaperone Hsp90, we asked whether RIPK1 and FADD are clients of this chaperone. We therefore performed a time course assay using the Hsp90 inhibitor SNX-2112 (2 μM) in HEK293 cells. […] To further understand the relationship between FADD and Hsp90, we immunoprecipitated endogenous FADD from 786-O cells and examined the co-IP of Hsp90 (FIG. 4G).
as §1

[6] = biological target: T2, PP5-FLAG (Homo sapiens, UniProt P53041); assay: Biotin-P5 and biotin-P13 pulldown from HEK293 lysate; format: binding; details: 0.01-10 μM
T2 construct: expressed in transfected cells; host or cells: HEK293
T2 sequence (P53041 1-499): T1 sequence (P53041 1-499)
Description: Biotin-P5 and biotin-P13 Pulldown: HEK293 cells were transiently transfected with PP5-FLAG or active site point mutants and protein lysate extracted. Lysate was incubated with 0.01-10 μM biotin-P5 or biotin P-13 as indicated at 4° C. for 1 hr then added to streptavidin-conjugated agarose and incubated at 4° C. for 1 hr. Following three washes with fresh extraction buffer bound proteins were eluted in 5× Laemmli buffer and analyzed by Western blot. […] Samples were run by SDS PAGE, transferred to nitrocellulose membrane, and analyzed by Western blot.

[7] = test system: PP2A; assay: Biotin-P5 / biotin-P13 pulldown in 786-O lysate, co-pulldown of PP2A; format: binding, human; details: cell lysate, 1 μM

Structure (SMILES): Cc1noc(C)c1S(=O)(=O)Nc1ccc(O)c(C(=O)O)c1 [Compound P0]
phosphorylation of PP5 substrates phospho-S13-Cdc37 and phospho-S211-GR [1]: dose dependent increase in phosphorylation

mode of PP5 inhibition (enzyme kinetics, Lineweaver-Burk) [2]: competitive inhibitors | Ki ([2]; IC50 converted to Ki): 277 ± 50 nM
Structure (SMILES): COC(=O)c1cccc(NS(=O)(=O)c2c(C)noc2C)c1 [Compound P5, Methyl m-(3,5-dimethyl-4-isoxazolylsulfonylamino)benzoate]
proliferation of 786-O cells (MTT) [3]: significantly inhibited the proliferation | cleavage of apoptotic markers caspase 3 and 8 and PARP ([4]; 10 μM, 24 hrs): cleavage of the apoptotic markers caspase 3 and 8 and PARP

Structure (SMILES): CCCCN(c1ccc(Oc2ccccc2)cc1)S(=O)(=O)c1c(C)noc1C [Compound P058, N-Butyl(3,5-dimethyl-4-isoxazolylsulfonyl)(p-phenoxyphenyl)amine]
induction of apoptosis (cleaved PARP, cleaved caspase 8) ([4]; 10 μM, 24 hrs): had the ability to induce apoptosis

Structure (SMILES): Cc1noc(C)c1S(=O)(=O)N(CCCCl)c1ccc(Oc2ccccc2)cc1 [Compound P059, (3-Chloropropyl)(3,5-dimethyl-4-isoxazolylsulfonyl)(p-phenoxyphenyl)amine]
induction of apoptosis (cleaved PARP, cleaved caspase 8) ([4]; 10 μM, 24 hrs): had the ability to induce apoptosis

Structure (SMILES): Cc1noc(C)c1S(=O)(=O)N(CCCC#N)c1ccc(Oc2ccccc2)cc1 [Compound P075, 4-[(3,5-Dimethyl-4-isoxazolylsulfonyl)(p-phenoxyphenyl)amino]butyronitrile]
induction of apoptosis (cleaved PARP, cleaved caspase 8) ([4]; 10 μM, 24 hrs): had the ability to induce apoptosis

Structure (SMILES): CC1(C)CC(=O)c2c(C(F)(F)F)nn(-c3ccc(C(N)=O)c(N[C@H]4CC[C@H](O)CC4)c3)c2C1 [SNX-2112]
RIPK1 protein levels ([5]; 16 hr): decreased RIPK1 protein levels | FADD protein levels ([5]; throughout time course): did not observe a decrease in FADD levels | Hsp90 clients Tsc2, Akt and phos-Ser473-Akt protein levels ([5]; time course): destabilized and degraded

binding of PP5-FLAG to biotinylated compound (streptavidin pulldown) [6]: binds | binding to PP2A [7]: did not bind
Structure (SMILES): Cc1noc(C)c1S(=O)(=O)Nc1cccc(C(=O)N2CCN(C(=O)CCC[C@@H]3SC[C@@H]4NC(=O)N[C@@H]43)CC2)c1 [biotin-P5, N-[3-(4-(4-[(3aS,4S,6aR)-2-Oxo-hexahydro-1H-thieno[3,4-d]imidazol-4-yl]butanoyl)piperazine-1-carbonyl)phenyl]-3,5-dimethyl-1,2-oxazole-4-sulfonamide]

Structure (SMILES): COC(=O)C[C@H](NC(=O)[C@H](C)NC(=O)[C@@H](NC(=O)OCc1ccccc1)C(C)C)C(=O)CF [z-VAD-fmk, reference compound] (Cbz-Val-Ala-Asp(OMe)-CH2F)
effect on IC261-induced apoptosis ([4]; 10 μM for 1 hr, then IC261 for 16 hrs): reversed this effect
